Results: patent US20240109924A1, “IP4-4,6 SUBSTITUTED DERIVATIVE COMPOUNDS” (SANIFIT THERAPEUTICS, S.A., priority 2021, published 2024)
pEC50: −log10 of the molar value. Structures can show the parent of a compound that is named as a salt.

experiment: In vitro inhibition of calcium phosphate crystallization in human plasma (spectrophotometric assay); format: biochemical; settings: 0-100 μM, 1.5 mM phosphate, 12.5 mM calcium, pH 7.4, absorbance 550 nm, slope 6-24 min, read-out: Relative Potency
Protocol: The in vitro efficacy of the IP4-4,6 substituted derivatives (e.g., Compounds 1 to 53) of the invention on the inhibition of calcium phosphate crystallization in human plasma samples was evaluated according to a spectrophotometric assay previously described in the art (Ferrer M, et al., Sci Rep 2017; 7:6858, doi:10.1038/s41598-017-07203-x).
A 96-well plate was employed. Plasma was spiked (1 volume of the IP4-4,6 substituted derivatives of the invention per 19 volumes of plasma) with increasing concentrations of the derivatives in the range of 0-100 μM. Plasma was then centrifuged at 10,000 g at rt and subsequently mixed with a mixture of 5 mM hydrogen phosphate and 41.67 mM calcium to attain final concentrations of 1.5 mM phosphate and 12.5 mM calcium, respectively. All reagent solutions were filtered, and pH adjusted to 7.4.
Crystallization of calcium phosphate was monitored spectrophotometrically for 30 min at rt by measuring the increments in absorbance at 550 nm using the Biotek Powerwave XS Microplate spectrophotometer (BioTek Instruments, Inc., Winooski, VT, US). The plate was incubated at rt in an orbital shaker and absorbance measured every 3 min.
Plasma crystallization was assessed based on slope measurement in the linear range between 6 and 24 min from plots of increase in absorbance versus logarithm of time. The efficacy of different myo-inositol phosphates derivatives in preventing in vitro formation of calcium phosphate crystals was assessed in human plasma samples using the slopes obtained between 6- and 24-min. Inhibition of crystallization was measured by comparing the slopes of the control sample (blank plasma) with those of samples containing the inhibitor as shown below: […]

SMILES	pEC50
CC(=O)N1CCN(CCOC2C(OP(=O)(O)O)C(OCCN3CCN(C(C)=O)CC3)C(OP(=O)(O)O)C(OP(=O)(O)O)C2OP(=O)(O)O)CC1 (stereo not drawn) [Compound 34, 4,6-O-bis(2-(4-acetylpiperazin-1-yl)ethyl)-myo-inositol-1,2,3,5-tetrakis(phosphate) octasodium salt]	5.00 to 5.30
O=P(O)(O)O[C@@H]1[C@@H](OCCCC(F)(F)F)[C@H](OP(=O)(O)O)[C@H](OP(=O)(O)O)[C@H](OP(=O)(O)O)[C@H]1OCCCC(F)(F)F [Compound 22, 4,6-O-bis(4,4,4-trifluorobutyl)-myo-inositol-1,2,3,5-tetrakis(phosphate) octasodium salt]	≥ 5.30
COC(=O)NCCCCCOC1C(OP(=O)(O)O)C(OCCCCCNC(=O)OC)C(OP(=O)(O)O)C(OP(=O)(O)O)C1OP(=O)(O)O (stereo not drawn) [Compound 25, 4,6-O-bis(5-((methoxycarbonyl)amino)pentyl)-myo-inositol-1,2,3,5-tetrakis(phosphate) octasodium salt]	≥ 5.30
CCCCCOC1C(OP(O)(O)=S)C(OCCCCC)C(OP(O)(O)=S)C(OP(O)(O)=S)C1OP(O)(O)=S (stereo not drawn) [Compound 50, 4,6-O-dipentyl-myo-inositol-1,2,3,5-tetrakis(thiophosphate) octasodium salt]	< 5.00
COCCCOC1C(OP(=O)(O)O)C(OCCCOC)C(OP(=O)(O)O)C(OP(=O)(O)O)C1OP(=O)(O)O (stereo not drawn) [Compound 10, 4,6-O-bis(3-methoxypropyl)-myo-inositol-1,2,3,5-tetrakis(phosphate) octasodium salt]	≥ 5.30
COCCCCCCCOC1C(OP(=O)(O)O)C(OCCCCCCCOC)C(OP(=O)(O)O)C(OP(=O)(O)O)C1OP(=O)(O)O (stereo not drawn) [Compound 11, 4,6-O-bis(7-methoxyheptyl)-myo-inositol-1,2,3,5-tetrakis(phosphate) octasodium salt]	< 5.00
O=P(O)(O)OC1C(OCCCCCn2cncn2)C(OP(=O)(O)O)C(OP(=O)(O)O)C(OP(=O)(O)O)C1OCCCCCn1cncn1 (stereo not drawn) [Compound 17, 4,6-O-bis(5-(1H-1,2,4-triazol-1-yl)pentyl)-myo-inositol-1,2,3,5-tetrakis(phosphate) octasodium salt]	< 5.00
CCCCCCCCCCOC1C(OP(=O)(O)O)C(OCCCCCCCCCC)C(OP(=O)(O)O)C(OP(=O)(O)O)C1OP(=O)(O)O (stereo not drawn) [Compound 2, 4,6-O-didecyl-myo-inositol-1,2,3,5-tetrakis(phosphate) octasodium salt]	< 5.00
COCCCCCCCCCOC1C(OP(=O)(O)O)C(OCCCCCCCCCOC)C(OP(=O)(O)O)C(OP(=O)(O)O)C1OP(=O)(O)O (stereo not drawn) [Compound 12, 4,6-O-bis(9-methoxynonyl)-myo-inositol-1,2,3,5-tetrakis(phosphate) octasodium salt]	< 5.00
O=P(O)(O)OC1C(OCCCCCn2cccn2)C(OP(=O)(O)O)C(OP(=O)(O)O)C(OP(=O)(O)O)C1OCCCCCn1cccn1 (stereo not drawn) [Compound 16, 4,6-O-bis(5-(1H-pyrazol-1-yl)pentyl)-myo-inositol-1,2,3,5-tetrakis(phosphate) octasodium salt]	≥ 5.30
CCCCCCCOC1C(OP(=O)(O)O)C(OCCCCCCC)C(OP(=O)(O)O)C(OP(=O)(O)O)C1OP(=O)(O)O (stereo not drawn) [Compound 5, 4,6-O-diheptyl-myo-inositol-1,2,3,5-tetrakis(phosphate) octasodium salt]	≥ 5.30
COC(=O)NCCCOC1C(OP(=O)(O)O)C(OCCCNC(=O)OC)C(OP(=O)(O)O)C(OP(=O)(O)O)C1OP(=O)(O)O (stereo not drawn) [Compound 24, 4,6-O-bis(3-((methoxycarbonyl)amino)propyl)-myo-inositol-1,2,3,5-tetrakis(phosphate) octasodium salt]	< 5.00
NCCCCCCCCCCO[C@@H]1[C@@H](OP(=O)(O)O)[C@H](OCCCCCCCCCCN)[C@@H](OP(=O)(O)O)[C@@H](OP(=O)(O)O)[C@H]1OP(=O)(O)O [Compound 15, 4,6-O-bis(10-aminodecyl)-myo-inositol-1,2,3,5-tetrakis(phosphate) octasodium salt]	< 5.00
CCCO[C@@H]1[C@@H](OP(=O)(O)O)[C@H](OCCC)[C@@H](OP(=O)(O)O)[C@@H](OP(=O)(O)O)[C@H]1OP(=O)(O)O [Compound 4, 4,6-O-dipropyl-myo-inositol-1,2,3,5-tetrakis(phosphate) octasodium salt]	≥ 5.30
NC(=O)CCCOC1C(OP(=O)(O)O)C(OCCCC(N)=O)C(OP(=O)(O)O)C(OP(=O)(O)O)C1OP(=O)(O)O (stereo not drawn) [Compound 26, 4,6-O-bis(4-amino-4-oxobutyl)-myo-inositol-1,2,3,5-tetrakis(phosphate) octasodium salt]	≥ 5.30

The next lines start with the values.

pEC50	SMILES
5.00 to 5.30	COCc1cn(CCCCOC2C(OP(=O)(O)O)C(OCCCCn3cc(COC)nn3)C(OP(=O)(O)O)C(OP(=O)(O)O)C2OP(=O)(O)O)nn1 (stereo not drawn) [Compound 37, 4,6-O-bis(4-(4-(methoxymethyl)-1H-1,2,3-triazol-1-yl)butyl)-myo-inositol-1,2,3,5-tetrakis(phosphate) octasodium salt]
≥ 5.30	COCc1cn(CCCCCCOC2C(OP(=O)(O)O)C(OCCCCCCn3cc(C(=O)O)nn3)C(OP(=O)(O)O)C(OP(=O)(O)O)C2OP(=O)(O)O)nn1 (stereo not drawn) [Compound 41, 4-O-(6-(4-carboxy-1H-1,2,3-triazol-1-yl)hexyl)-6-O-(6-(4-(methoxymethyl)-1H-1,2,3-triazol-1-yl)hexyl)-myo-inositol-1,2,3,5-tetrakis(phosphate) nonasodium salt]
≥ 5.30	O=C(O)CCCC(=O)NCCCOC1C(OP(=O)(O)O)C(OCCCNC(=O)CCCC(=O)O)C(OP(=O)(O)O)C(OP(=O)(O)O)C1OP(=O)(O)O (stereo not drawn) [Compound 45, 4,6-O-bis((3-(4-carboxybutanamido)propyl))-myo-inositol-1,2,3,5-tetrakis(phosphate) decasodium salt]
≥ 5.30	O=C(O)CCc1cn(CCCOC2C(OP(=O)(O)O)C(OCCCn3cc(CCC(=O)O)nn3)C(OP(=O)(O)O)C(OP(=O)(O)O)C2OP(=O)(O)O)nn1 (stereo not drawn) [Compound 35, 4,6-O-bis(3-(4-(2-carboxyethyl)-1H-1,2,3-triazol-1-yl)propyl)-myo-inositol-1,2,3,5-tetrakis(phosphate) decasodium salt]
≥ 5.30	O=C(O)c1cn(CCCCCCOC2C(OP(=O)(O)O)C(OCCCCCCn3cc(C(=O)O)nn3)C(OP(=O)(O)O)C(OP(=O)(O)O)C2OP(=O)(O)O)nn1 (stereo not drawn) [Compound 40, 4,6-O-(6-(4-carboxy-1H-1,2,3-triazol-1-yl)hexyl)-myo-inositol-1,2,3,5-tetrakis(phosphate) decasodium salt]
≥ 5.30	CCCNC(=O)NCCCCCOC1C(OP(=O)(O)O)C(OCCCCCNC(=O)NCCC)C(OP(=O)(O)O)C(OP(=O)(O)O)C1OP(=O)(O)O (stereo not drawn) [Compound 30, 4,6-O-bis(5-(3-propylureido)pentyl)-myo-inositol-1,2,3,5-tetrakis(phosphate) octasodium salt]
5.00 to 5.30	COc1ccc(CCCOC2C(OP(=O)(O)O)C(OCCCc3ccc(OC)cc3)C(OP(=O)(O)O)C(OP(=O)(O)O)C2OP(=O)(O)O)cc1 (stereo not drawn) [Compound 43, 4,6-O-bis(3-(4-methoxyphenyl)propyl)-myo-inositol-1,2,3,5-tetrakis(phosphate) octasodium salt]
≥ 5.30	COCc1cn(CCCCCOC2C(OP(=O)(O)O)C(OCCCCCn3cc(COC)nn3)C(OP(=O)(O)O)C(OP(=O)(O)O)C2OP(=O)(O)O)nn1 (stereo not drawn) [Compound 38, 4,6-O-bis(5-(4-(methoxymethyl)-1H-1,2,3-triazol-1-yl)pentyl)-myo-inositol-1,2,3,5-tetrakis(phosphate) octasodium salt]
5.00 to 5.30	COCCCCCCn1cc(COC2C(OP(=O)(O)O)C(OCc3cn(CCCCCCOC)nn3)C(OP(=O)(O)O)C(OP(=O)(O)O)C2OP(=O)(O)O)nn1 (stereo not drawn) [Compound 33, 4,6-O-bis((1-(6-methoxyhexyl)-1H-1,2,3-triazol-4-yl)methyl)-myo-inositol-1,2,3,5-tetrakis(phosphate) octasodium salt]
5.00 to 5.30	O=C(NCCCOC1C(OP(=O)(O)O)C(OCCCNC(=O)Nc2ccccc2)C(OP(=O)(O)O)C(OP(=O)(O)O)C1OP(=O)(O)O)Nc1ccccc1 (stereo not drawn) [Compound 46, 4,6-O-bis(3-(3-phenylureido)propyl)-myo-inositol-1,2,3,5-tetrakis(phosphate) octasodium salt]
≥ 5.30	COCCCn1cc(CO[C@@H]2[C@@H](OP(=O)(O)O)[C@H](OCc3cn(CCCOC)nn3)[C@@H](OP(=O)(O)O)[C@@H](OP(=O)(O)O)[C@H]2OP(=O)(O)O)nn1 [Compound 32, 4,6-O-bis((1-(3-methoxypropyl)-1H-1,2,3-triazol-4-yl)methyl)-myo-inositol-1,2,3,5-tetrakis(phosphate) octasodium salt]
5.00 to 5.30	O=C(NCCCCCOC1C(OP(=O)(O)O)C(OCCCCCNC(=O)c2cccs2)C(OP(=O)(O)O)C(OP(=O)(O)O)C1OP(=O)(O)O)c1cccs1 (stereo not drawn) [Compound 49, 4,6-O-bis(5-(thiophene-2-carboxamido)pentyl)-myo-inositol-1,2,3,5-tetrakis(phosphate) octasodium salt]
